These results are taken from publication PMC7785020, “A unique hormonal recognition feature of the human glucagon-like peptide-2 receptor” (Cell Research, 2020).

Structures are written as SMILES. Changes are numbered by the printed parent chain.

Test [1] addresses T1, GLP-2R mutant ECL1 (poly-alanine) (Homo sapiens, UniProt O95838, D244A/DELINS236-257AAAAAAAAAAAAAAAAAAAAAA/E246A/E255A/G248A/K241A/L253A/M250A/M256A/N237A/N245A/N247A/P243A/R242A/S238A/S240A/S251A/S254A/S257A/W249A/Y236A/Y239A/Y252A).
T1 construct: WT (1–553); expressed in transfected cells; host or cells: COS-7
The test is described as follows: radioligand competition binding, ECL1 (poly-alanine). The conditions noted are these: COS-7, ECL1 (residues 236–257) substituted by poly-alanine; [^125I]GLP-2(1–33, M10Y) 10–15 pM, 4 h, 4 °C; mean ± SEM, n ≥ 3 in duplicate. The procedure: A stepwise oxidation reaction was performed by addition of 6 aliquots of 5 µL ChloramineT (30 µL/mL) with a 1-min interval during constant stirring. The reaction was terminated by the addition of 400 µL phase A (0.1% trifluoracetic acid) before being fractionated into 1 mL volume by reverse-phase high-performance liquid chromatography (RP-HPLC, Waters 600 SimiPrep system) on a C18 column. The iodinated protein was […] by increasing concentrations of phase B (Acetonitrile + 0.1% TFA) and tested for competitive binding ability.
One day before transfection, the COS-7 cells were seeded in 75 cm^2 culture flasks (3 million cells/flask) in DMEM, containing 3.9 g/L NaHCO3 and supplemented with 10% FBS, 1% L-glutamine, 180 units/mL penicillin and 45 µg/mL streptomycin. […] Following 24-h incubation, the cells were transferred to Costa® microtiter plates (150,000 cells/well, PerkinElmer) to achieve a 5%–10% specific binding. Forty-eight hours after transfection, the cells were washed twice in binding buffer (50 mM HEPES, pH 7.4, supplemented with 1 mM CaCl2, 5 mM MgCl2 and 0.5% (w/v) BSA) and incubated for 15 min at 4 °C. […] The cells were then washed twice in binding buffer (4 °C), lysed and counted for radioactivity using a Wallac Gamma Counter (PerkinElmer).

Another test addresses T2, GLP-2R R344^5.40A (Homo sapiens, UniProt O95838, R344A).
T2 sequence (O95838 1-553 R344A): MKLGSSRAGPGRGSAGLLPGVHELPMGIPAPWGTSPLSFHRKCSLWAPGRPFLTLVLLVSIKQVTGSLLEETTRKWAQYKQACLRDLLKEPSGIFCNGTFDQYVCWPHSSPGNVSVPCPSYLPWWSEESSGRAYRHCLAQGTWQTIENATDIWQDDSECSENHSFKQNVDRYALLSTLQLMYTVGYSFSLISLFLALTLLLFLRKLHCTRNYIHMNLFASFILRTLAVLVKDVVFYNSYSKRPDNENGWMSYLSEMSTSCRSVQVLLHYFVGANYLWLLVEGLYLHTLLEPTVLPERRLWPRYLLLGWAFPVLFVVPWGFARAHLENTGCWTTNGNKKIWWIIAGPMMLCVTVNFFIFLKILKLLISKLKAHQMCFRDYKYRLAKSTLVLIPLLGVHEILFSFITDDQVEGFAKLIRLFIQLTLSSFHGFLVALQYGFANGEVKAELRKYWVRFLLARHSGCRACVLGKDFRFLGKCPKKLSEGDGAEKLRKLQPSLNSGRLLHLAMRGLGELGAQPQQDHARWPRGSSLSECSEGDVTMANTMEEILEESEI
The test is described as follows: cAMP accumulation, R344^5.40A. In kind it is cell-based. Conditions: Table S3, R344A; HEK 293T, 30 min, RT; mean ± SEM, n ≥ 3 in duplicate; read-out: cAMP Emax (% WT). The procedure:
(§1) HEK 293T cells were cultured in Dulbecco’s Modified Eagle’s Medium (DMEM) (Gibco, Waltham, USA) supplemented with 10% (v/v) fetal bovine serum (FBS) (Gibco) and 1% (v/v) sodium pyruvate (Gibco) at 37 °C, 5% CO2 in a humidified incubator. They were seeded onto 6-well cell culture plates and transiently transfected with different GLP-2R constructs using Lipofectamine 2000 transfection reagent (Invitrogen, Carlsbad, CA, USA). After 24 h, the transfected cells were seeded onto 384-well microtiter plates (3000 cells per well) in HBSS supplemented with 5 mM HEPES, 0.1% (w/v) bovine serum albumin (BSA) and 0.5 mM 3-isobutyl-1- methylxanthine, and stimulated with increasing concentrations of GLP-2 for 30 min at RT. Eu and Ulight were diluted by cAMP detection buffer and added to the plates separately to terminate the reaction. Plates were incubated at RT for 60 min before measuring the fluorescence intensity at 620 nm and […] by an EnVision multilabel plate reader (PerkinElmer, Boston, USA).
(Cyclic AMP is a second messenger, typically raised through Gs and lowered through Gi signalling.)

Another test has as its target T3, GLP-2R (1-490)-LgBiT (Homo sapiens, UniProt O95838).
T3 construct: the C-terminus-truncated GLP-2R(1–490)-LgBiT; HA signal peptide (N); TEV site-OMBP-MBP (C); expressed in transfected cells; host or cells: HEK 293T
The test is described as follows: cAMP accumulation, truncated construct. In kind it is cell-based. The conditions noted are these: Table S2, GLP-2R (1-490)-LgBiT; HEK 293T, 30 min, RT; mean ± SEM, n ≥ 3 in duplicate; read-out: cAMP accumulation Emax (% WT). The procedure:
as §1

The target of the next test is T4, GLP-2R Y186^1.47A (Homo sapiens, UniProt O95838, Y186A).
T4 sequence (O95838 1-553 Y186A): T2 sequence (O95838 1-553 R344A) with Y186A, A344R
The test is described as follows: cAMP accumulation, Y186^1.47A. In kind it is cell-based. Set-up: WT (1–553); expressed in transfected cells; HEK 293T (cAMP). The conditions noted are these: Table S3, Y186A; HEK 293T, 30 min, RT; mean ± SEM, n ≥ 3 in duplicate; read-out: cAMP Emax (% WT). As for the experimental part: as §1

T3 sequence (O95838 1-490): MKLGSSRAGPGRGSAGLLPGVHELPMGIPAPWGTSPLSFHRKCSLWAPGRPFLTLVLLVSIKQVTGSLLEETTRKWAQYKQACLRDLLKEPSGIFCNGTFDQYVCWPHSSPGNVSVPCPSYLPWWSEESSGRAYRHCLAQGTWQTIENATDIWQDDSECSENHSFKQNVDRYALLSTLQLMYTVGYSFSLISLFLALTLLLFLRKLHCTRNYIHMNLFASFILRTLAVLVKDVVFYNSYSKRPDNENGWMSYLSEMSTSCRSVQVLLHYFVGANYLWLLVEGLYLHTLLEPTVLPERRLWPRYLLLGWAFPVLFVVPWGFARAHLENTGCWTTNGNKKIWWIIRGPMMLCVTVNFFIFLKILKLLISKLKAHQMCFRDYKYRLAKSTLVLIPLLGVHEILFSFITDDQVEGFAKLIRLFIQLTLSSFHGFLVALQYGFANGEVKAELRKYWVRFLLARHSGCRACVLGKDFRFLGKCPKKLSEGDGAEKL

For the compound `CC[C@H](C)[C@H](NC(=O)[C@H](Cc1ccccc1)NC(=O)[C@H](CC(=O)O)NC(=O)[C@H](CCCNC(=N)N)NC(=O)[C@H](C)NC(=O)[C@H](C)NC(=O)[C@H](CC(C)C)NC(=O)[C@H](CC(N)=O)NC(=O)[C@H](CC(=O)O)NC(=O)[C@H](CC(C)C)NC(=O)[C@@H](NC(=O)[C@@H](NC(=O)[C@H](CC(N)=O)NC(=O)[C@H](CCSC)NC(=O)[C@H](CCC(=O)O)NC(=O)[C@H](CC(=O)O)NC(=O)[C@H](CO)NC(=O)[C@H](Cc1ccccc1)NC(=O)[C@H](CO)NC(=O)CNC(=O)[C@H](CC(=O)O)NC(=O)[C@H](C)NC(=O)[C@@H](N)Cc1c[nH]cn1)[C@@H](C)O)[C@@H](C)CC)C(=O)N[C@@H](CC(N)=O)C(=O)N[C@@H](Cc1c[nH]c2ccccc12)C(=O)N[C@@H](CC(C)C)C(=O)N[C@H](C(=O)N[C@@H](CCC(N)=O)C(=O)N[C@H](C(=O)N[C@@H](CCCCN)C(=O)N[C@H](C(=O)N[C@H](C(=O)N[C@@H](CC(=O)O)C(=O)O)[C@@H](C)O)[C@@H](C)CC)[C@@H](C)O)[C@@H](C)CC` [Human GLP-2 (1–33)], the “% Binding of WT” value in test [1] came to 3.0 ± 1.1 %. For the same compound, the maximum response (Emax) was 109 ± 2.8% on GLP-2R R344^5.40A, 85.3 ± 4% on GLP-2R (1-490)-LgBiT and 100 ± 2.8% at GLP-2R Y186^1.47A.

What is called Emax is the size of the effect at its maximum, as opposed to the concentration needed.
